Assay results reported in patent EP0095295B1, “Cyclic peptide derivatives” (ELI LILLY AND COMPANY, priority 1982, dated 1987).

What was measured:
acute toxicity in mice = format: in vivo; details: administered intravenously to mice
Procedure: The acute toxicity of NTrp-p-(n-dodecyloxy)benzoyl-A―21978C, when administered intravenously to mice and expressed as LDso, was 67.5 mg/kg.

[1] = solubility (listed characteristics); format: physicochemical; details: water
[2] = fermentation medium, pH values above pH 7.2
Source text: In stirred fermentors the pH may be controlled by sensor controllers. Where this is impractical, such as in flask fermentors, pH may be controlled by adding 0.1 molar phosphate buffer to the medium prior to addition of the substrate.

| SMILES | acute toxicity expressed as LDso (acute toxicity in mice) [mg/kg] | Solubility [1] | stability (alkaline hydrolysis) [2] |
| --- | --- | --- | --- |
| CCCCCCCCCCCCOc1ccc(C(=O)N[C@@H](Cc2c[nH]c3ccccc23)C(=O)N[C@@H](CC(N)=O)C(=O)N[C@@H](CC(=O)O)C(=O)N[C@@H]2C(=O)NCC(=O)N[C@@H](CCCN)C(=O)N[C@@H](CC(=O)O)C(=O)N[C@H](C)C(=O)N[C@@H](CC(=O)O)C(=O)NCC(=O)N[C@H](CO)C(=O)N[C@@H]([C@H](C)CC(=O)O)C(=O)N[C@@H](CC(=O)c3ccccc3N)C(=O)O[C@@H]2C)cc1 [NTrp-p-(n-dodecyloxy)benzoyl-A―21978C, NTrp-P-(n-dodecyloxy)benzoyl-A-21978C Nucleus] | 67.5 | – | – |
| C[C@H](CC(=O)O)[C@@H]1NC(=O)[C@@H](CO)NC(=O)CNC(=O)[C@H](CC(=O)O)NC(=O)[C@@H](C)NC(=O)[C@H](CC(=O)O)NC(=O)[C@H](CCCN)NC(=O)CNC(=O)[C@@H](NC(=O)[C@H](CC(=O)O)NC(=O)[C@H](CC(N)=O)NC(=O)[C@@H](N)Cc2c[nH]c3ccccc23)[C@@H](C)OC(=O)[C@H](CC(=O)c2ccccc2N)NC1=O [A-21978C nucleus] | – | soluble in water | increasingly subject to alkaline hydrolysis |
